Consider two compounds from publication PMC4671066, “Characterization of the 26S proteasome network in Plasmodium falciparum” (Scientific Reports, 2015).

Molecules are shown by their SMILES.

The target in experiment [1] is T1, PfUSP14 (PFE1355c, ubiquitin carboxyl-terminal hydrolase, putative) (Plasmodium falciparum, UniProt Q8I3J3).
T1 construct: gene PF3D7_0527200; recombinant hexahistidyl-tagged PfUSP14
T1 sequence (Q8I3J3 1-605): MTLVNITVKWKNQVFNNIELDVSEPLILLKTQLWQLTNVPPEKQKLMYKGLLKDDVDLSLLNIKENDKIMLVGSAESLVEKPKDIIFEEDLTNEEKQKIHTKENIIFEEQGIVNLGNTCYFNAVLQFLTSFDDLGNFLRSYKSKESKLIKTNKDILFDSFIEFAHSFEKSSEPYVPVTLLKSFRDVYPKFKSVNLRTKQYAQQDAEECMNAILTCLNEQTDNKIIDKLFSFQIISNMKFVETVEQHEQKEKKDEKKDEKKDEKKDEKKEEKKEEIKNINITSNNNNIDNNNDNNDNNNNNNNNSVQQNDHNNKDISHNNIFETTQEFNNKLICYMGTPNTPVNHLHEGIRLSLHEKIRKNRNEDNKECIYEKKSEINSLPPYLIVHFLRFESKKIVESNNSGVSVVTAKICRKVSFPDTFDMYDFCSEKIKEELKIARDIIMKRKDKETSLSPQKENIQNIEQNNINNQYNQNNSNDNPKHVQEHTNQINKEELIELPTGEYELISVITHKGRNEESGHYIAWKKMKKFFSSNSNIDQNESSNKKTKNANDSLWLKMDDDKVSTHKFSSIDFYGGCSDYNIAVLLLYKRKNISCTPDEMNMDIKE
Put plainly: concentration-dependent inhibition of recombinant PfUSP14 deubiquitinase activity. It counts as biochemical.

The target of experiment [2] is T2, P. falciparum 26S proteasome, β5 subunit (chymotrypsin-like activity) (Plasmodium falciparum, UniProt Q8IJT1).
T2 construct: gene PF3D7_1011400; with other 20S and 19S proteasome subunits
T2 sequence (Q8IJT1 61-271): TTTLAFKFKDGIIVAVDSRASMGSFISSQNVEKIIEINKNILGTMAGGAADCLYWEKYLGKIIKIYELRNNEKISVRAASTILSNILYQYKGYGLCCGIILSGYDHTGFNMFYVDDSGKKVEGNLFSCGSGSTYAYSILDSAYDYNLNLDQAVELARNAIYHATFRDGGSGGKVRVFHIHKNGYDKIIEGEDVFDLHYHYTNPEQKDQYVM
T2 sequence (A0A5K1K7U1 39-240 partner): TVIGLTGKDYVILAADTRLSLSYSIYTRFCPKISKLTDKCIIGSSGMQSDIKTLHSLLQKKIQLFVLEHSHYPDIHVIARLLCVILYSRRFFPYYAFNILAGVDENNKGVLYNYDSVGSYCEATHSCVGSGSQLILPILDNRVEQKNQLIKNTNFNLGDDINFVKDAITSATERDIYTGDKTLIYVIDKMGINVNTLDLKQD
It counts as biochemical.

What is called IC50 is the midpoint of a concentration-inhibition curve. With `C=CC(=O)N1C/C(=C\c2ccc([N+](=O)[O-])cc2)C(=O)/C(=C/c2ccc([N+](=O)[O-])cc2)C1` [b-AP15], the IC50 in experiment [1] worked out at 11.3 ± 4.7 µM.

In the case of `CC(=O)N[C@@H](CSC(=O)[C@]1([C@@H](O)C(C)C)NC(=O)[C@H](C)[C@@H]1O)C(=O)O` [lactacystin], the “fluorogenic peptide (Suc-LLVY-AMC) cleavage by purified proteasome, inhibitor at” value in experiment [2] was “the respective proteolytic activities were shown to be inhibited by the proteasome inhibitors MG132 and lactacystin”.
